{"source": "patent US6861432B2", "about": "“Piperazine derivatives that destabilize androgen receptors” (Schering Aktiengesellschaft, priority 2001, dated 2005)", "data": [{"biological_target": "T1, androgen receptor (Homo sapiens, UniProt P10275, T878A)", "T1 construct": "2*10^6 LNCaP cells in 6 ml of RPMI 1640 without phenol red are grown; endogenous in cells; host or cells: LNCaP (human prostate cell line)", "T1 sequence (P10275 1-920 T878A)": "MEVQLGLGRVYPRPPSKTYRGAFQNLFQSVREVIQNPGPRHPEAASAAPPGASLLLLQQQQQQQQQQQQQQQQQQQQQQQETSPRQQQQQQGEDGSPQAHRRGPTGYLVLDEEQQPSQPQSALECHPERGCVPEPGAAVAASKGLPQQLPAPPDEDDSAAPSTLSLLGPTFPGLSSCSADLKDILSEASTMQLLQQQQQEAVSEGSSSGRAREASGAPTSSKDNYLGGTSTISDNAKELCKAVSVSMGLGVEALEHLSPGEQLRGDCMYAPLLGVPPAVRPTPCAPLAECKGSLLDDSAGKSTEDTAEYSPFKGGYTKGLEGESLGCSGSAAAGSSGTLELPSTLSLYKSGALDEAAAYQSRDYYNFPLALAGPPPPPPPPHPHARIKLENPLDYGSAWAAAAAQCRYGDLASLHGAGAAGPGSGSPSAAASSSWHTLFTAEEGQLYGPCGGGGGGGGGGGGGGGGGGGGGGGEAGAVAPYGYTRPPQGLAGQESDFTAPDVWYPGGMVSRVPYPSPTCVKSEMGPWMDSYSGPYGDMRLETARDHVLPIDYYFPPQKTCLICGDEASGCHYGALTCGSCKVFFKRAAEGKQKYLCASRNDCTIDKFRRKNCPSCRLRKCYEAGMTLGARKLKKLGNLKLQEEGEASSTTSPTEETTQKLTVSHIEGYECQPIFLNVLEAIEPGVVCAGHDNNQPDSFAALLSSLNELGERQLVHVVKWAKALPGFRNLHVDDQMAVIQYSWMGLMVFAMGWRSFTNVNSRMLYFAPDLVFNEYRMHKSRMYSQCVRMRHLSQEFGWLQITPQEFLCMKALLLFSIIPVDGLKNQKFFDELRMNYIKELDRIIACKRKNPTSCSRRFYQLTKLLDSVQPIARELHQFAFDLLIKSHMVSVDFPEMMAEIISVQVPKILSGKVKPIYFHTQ", "test": "cell-based", "details": "LNCaP cells, 10 μM test substance, 48 h; AR/actin as percentage of DMSO control", "units": {"AR Content [%] At 10 μM": "%"}, "values": [{"smiles": "CC1=C(CCCCCCN2CCN(S(=O)(=O)c3ccccc3)CC2)C(=O)N(c2ccc(C#N)c(C(F)(F)F)c2)C1=O", "note": "[Example 295, 4-[2,5-Dihydro-3-methyl-2,5-dioxo-4-[6-[4-(phenylsulfonyl)piperazin-1-yl]hexyl]-1H-pyrrol-1-yl]-2-(trifluoromethyl)benzonitrite]", "AR Content [%] At 10 μM": 48}]}, {"biological_target": "T1, androgen receptor", "test": "cell-based", "details": "LNCaP, 48 h, read-out: AR Content [%] At 10 μM", "units": {"remaining activity at 10 µM": "%"}, "values": [{"smiles": "CC1=C(CCCCN2CCN(C(=O)C3CCC3)CC2)C(=O)N(c2ccc(C#N)c(C(F)(F)F)c2)C1=O", "note": "[Example 93, 4-[3-[4-[4-(Cyclobutylcarbonyl)piperazin-1-yl]butyl]-2,5-dihydro-4-methyl-2,5-dioxo-1H-pyrrol-1-yl]-2-(trifluoromethyl)benzonitrile]", "remaining activity at 10 µM": 53}, {"smiles": "CC1=C(CCCCN2CCN(C(=O)c3ccc(N(C)C)cc3)CC2)C(=O)N(c2ccc(C#N)c(C(F)(F)F)c2)C1=O", "note": "[Example 96, 4-[3-[4-[4-[4-(Dimethylamino)benzoyl]piperazin-1-yl]butyl]-2,5-dihydro-4-methyl-2,5-dioxo-1H-pyrrol-1-yl]-2-(trifluoromethyl)benzonitrile]", "remaining activity at 10 µM": 50}, {"smiles": "CC1=C(CCCCN2CCN(C(=O)c3cccs3)CC2)C(=O)N(c2ccc(C#N)c(C(F)(F)F)c2)C1=O", "note": "[Example 99, 4-[2,5-Dihydro-3-methyl-2,5-dioxo-4-[4-[4-[(thien-2-yl)-carbonyl]piperazin-1-yl]butyl]-1H-pyrrol-1-yl]-2-(trifluoromethyl)benzonitrile]", "remaining activity at 10 µM": 66}, {"smiles": "CC1=C(CCCCN2CCN(S(=O)(=O)c3ccc(C#N)cc3)CC2)C(=O)N(c2ccc(C#N)c(C(F)(F)F)c2)C1=O", "note": "[Example 121, 4-[3-[4-[4-[(4-Cyanophenyl)sulfonyl]piperazin-1-yl]butyl]-2,5-dihydro-4-methyl-2,5-dioxo-1H-pyrrol-1-yl]-2-(trifluoromethyl)benzonitrile]", "remaining activity at 10 µM": 53}, {"smiles": "COc1ccc(C(=O)N2CCN(CCCCCC3=C(C)C(=O)N(c4ccc(C#N)c(C(F)(F)F)c4)C3=O)CC2)cc1OC", "note": "[Example 158, 4-[3-[5-[4-(3,4-Dimethoxybenzoyl)piperazin-1-yl]pentyl]-2,5-dihydro-4-methyl-2,5-dioxo-1H-pyrrol-1-yl]-2-(trifluoromethyl)benzonitrile]", "remaining activity at 10 µM": 22}, {"smiles": "CC1=C(CCCCCN2CCN(S(=O)(=O)c3cccc4nsnc34)CC2)C(=O)N(c2ccc(C#N)c(C(F)(F)F)c2)C1=O", "note": "[Example 207, 4-[3-[5-[4-[(2,1,3-Benzothiadiazol-4-yl)sulfonyl]piperazin-1-yl]pentyl]-2,5-dihydro-4-methyl-2,5-dioxo-1H-pyrrol-1-yl]-2-(trifluoromethyl)benzonitrile]", "remaining activity at 10 µM": 42}, {"smiles": "CC1=C(CCCCCCN2CCN(C(=O)COc3ccc(Cl)cc3)CC2)C(=O)N(c2ccc(C#N)c(C(F)(F)F)c2)C1=O", "note": "[Example 264, 4-[3-[6-[4-[(4-Chlorophenoxy)acetyl]piperazin-1-yl]hexyl]-2,5-dihydro-4-methyl-2,5-dioxo-1H-pyrrol-1-yl]-2-(trifluoromethyl)benzonitrile]", "remaining activity at 10 µM": 37}, {"smiles": "CC1=C(CCCCCCN2CCN(C(=O)c3ccc(C#N)cc3)CC2)C(=O)N(c2ccc(C#N)c(C(F)(F)F)c2)C1=O", "note": "[Example 268, 4-[3-[6-[4-(4-Cyanobenzoyl)piperazin-1-yl]hexyl]-2,5-dihydro-4-methyl-2,5-dioxo-1H-pyrrol-1-yl]-2-(trifluoromethyl)benzonitrile]", "remaining activity at 10 µM": 73}, {"smiles": "CC1=C(CCCCCCN2CCN(C(=O)CC(C)C)CC2)C(=O)N(c2ccc(C#N)c(C(F)(F)F)c2)C1=O", "note": "[Example 270, 4-[2,5-Dihydro-3-methyl-4-[6-[4-(3-methyl-1-oxobutyl)piperazin-1-yl]hexyl]-2,5-dioxo-1H-pyrrol-1-yl]-2-(trifluoromethyl)benzonitrile]", "remaining activity at 10 µM": 65}, {"smiles": "CC1=C(CCCCCCN2CCN(S(C)(=O)=O)CC2)C(=O)N(c2ccc(C#N)c(C(F)(F)F)c2)C1=O", "note": "[Example 296, 4-[2,5-Dihydro-3-methyl-4-[6-[4-(methylsulfonyl)piperazin-1-yl]hexyl]-2,5-dioxo-1H-pyrrol-1-yl]-2-(trifluoromethyl)benzonitrile]", "remaining activity at 10 µM": 48}, {"smiles": "CC1=C(CCCCCCN2CCN(S(=O)(=O)c3ccc(C)cc3)CC2)C(=O)N(c2ccc(C#N)c(C(F)(F)F)c2)C1=O", "note": "[Example 297, 4-[2,5-Dihydro-3-methyl-4-[6-[4-[(4-methylphenyl)sulfonyl]piperazin-1-yl]hexyl]-2,5-dioxo-1H-pyrrol-1-yl]-2-(trifluoromethyl)benzonitrile]", "remaining activity at 10 µM": 59}, {"smiles": "CC1=C(CCCCCCN2CCN(S(=O)(=O)c3ccc(C#N)cc3)CC2)C(=O)N(c2ccc(C#N)c(C(F)(F)F)c2)C1=O", "note": "[Example 300, 4-[3-[6-[4-[(4-Cyanophenyl)sulfonyl]piperazin-1-yl]hexyl]-2,5-dihydro-4-methyl-2,5-dioxo-1H-pyrrol-1-yl]-2-(trifluoromethyl)benzonitrile]", "remaining activity at 10 µM": 35}, {"smiles": "CC1=C(CCCCCCN2CCN(C(=O)NC(C)C)CC2)C(=O)N(c2ccc(C#N)c(C(F)(F)F)c2)C1=O", "note": "[Example 319, 4-[6-[1-[4-Cyano-3-(trifluoromethyl)phenyl]-2,5-dihydro-4-methyl-2,5-dioxo-1H-pyrrol-3-yl]hexyl]-N-(1-methylethyl)-piperazine-1-carboxamide]", "remaining activity at 10 µM": 74}, {"smiles": "CC1=C(CCCCCCN2CCN(C(=O)Nc3ccccc3C(F)(F)F)CC2)C(=O)N(c2ccc(C#N)c(C(F)(F)F)c2)C1=O", "note": "[Example 324, 4-[6-[1-[4-Cyano-3-(trifluoromethyl)phenyl]-2,5-dihydro-4-methyl-2,5-dioxo-1H-pyrrol-3-yl]hexyl]-N-[2-(trifluoromethyl)phenyl]piperazine-1-carboxamide]", "remaining activity at 10 µM": 62}, {"smiles": "CC1=C(CCCCCCN2CCN(C(=O)Nc3cccc(F)c3)CC2)C(=O)N(c2ccc(C#N)c(C(F)(F)F)c2)C1=O", "note": "[Example 326, 4-[6-[1-[4-Cyano-3-(trifluoromethyl)phenyl]-2,5-dihydro-4-methyl-2,5-dioxo-1H-pyrrol-3-yl]hexyl]-N-(3-fluorophenyl)-piperazine-1-carboxamide]", "remaining activity at 10 µM": 45}, {"smiles": "CC1=C(CCCCCCN2CCN(C(=O)Nc3ccc(F)cc3)CC2)C(=O)N(c2ccc(C#N)c(C(F)(F)F)c2)C1=O", "note": "[Example 330, 4-[6-[1-[4-Cyano-3-(trifluoromethyl)phenyl]-2,5-dihydro-4-methyl-2,5-dioxo-1H-pyrrol-3-yl]hexyl]-N-(4-fluorophenyl)-piperazine-1-carboxamide]", "remaining activity at 10 µM": 46}, {"smiles": "CSc1cccc(NC(=O)N2CCN(CCCCCCC3=C(C)C(=O)N(c4ccc(C#N)c(C(F)(F)F)c4)C3=O)CC2)c1", "note": "[Example 340, 4-[6-[1-[4-Cyano-3-(trifluoromethyl)phenyl]-2,5-dihydro-4-methyl-2,5-dioxo-1H-pyrrol-3-yl]hexyl]-N-[3-(methylsulfanyl)phenyl]piperazine-1-carboxamide]", "remaining activity at 10 µM": 41}, {"smiles": "CSc1ccc(NC(=O)N2CCN(CCCCCCC3=C(C)C(=O)N(c4ccc(C#N)c(C(F)(F)F)c4)C3=O)CC2)cc1", "note": "[Example 342, 4-[6-[1-[4-Cyano-3-(trifluoromethyl)phenyl]-2,5-dihydro-4-methyl-2,5-dioxo-1H-pyrrol-3-yl]hexyl]-N-[4-(methylsulfanyl)phenyl]piperazine-1-carboxamide]", "remaining activity at 10 µM": 67}]}]}
